{"source": "paper PMC9259545", "about": "“Impact of poly-arginine peptides R18D and R18 on alteplase and tenecteplase thrombolysis in vitro, and neuroprotective stability to proteolysis” (Journal of Thrombosis and Thrombolysis, 2022)", "key": {"[1]": {"biological_target": "T1, TNK (Homo sapiens, UniProt P00750, H332A/K331A/N152Q/R333A/R334A/T138N)", "T1 construct": "purchased Boehringer Ingelheim 50 mg vial", "T1 sequence (P00750 36-562 T138N/N152Q/K331A/H332A/R333A/R334A)": "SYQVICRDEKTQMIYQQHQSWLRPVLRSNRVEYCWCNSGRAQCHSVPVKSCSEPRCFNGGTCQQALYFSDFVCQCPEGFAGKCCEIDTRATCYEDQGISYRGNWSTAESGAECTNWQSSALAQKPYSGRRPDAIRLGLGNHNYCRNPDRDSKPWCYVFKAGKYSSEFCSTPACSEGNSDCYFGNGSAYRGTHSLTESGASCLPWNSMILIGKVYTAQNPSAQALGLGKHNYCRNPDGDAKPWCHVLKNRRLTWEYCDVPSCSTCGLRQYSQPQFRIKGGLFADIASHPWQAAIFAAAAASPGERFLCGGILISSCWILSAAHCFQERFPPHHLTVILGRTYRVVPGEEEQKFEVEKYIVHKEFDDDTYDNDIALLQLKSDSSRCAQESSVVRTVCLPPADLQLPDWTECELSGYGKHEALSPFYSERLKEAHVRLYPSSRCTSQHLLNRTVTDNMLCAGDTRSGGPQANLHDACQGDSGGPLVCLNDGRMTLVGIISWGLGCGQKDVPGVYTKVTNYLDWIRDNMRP", "test": "Halo clot thrombolysis assay, TNK thrombolysis of whole blood clots", "assay_type": "biochemical", "settings": "TNK 5 nM, 27.5% human plasma", "method": "(§1) We utilised a high throughput 96-well plate thrombolysis assay (“halo clot assay”) based on the procedure developed by Bonnard et al.. To reduce assay components the halo thrombus formation procedure was modified by replacing the original thrombotic mixture consisting of recombinant tissue factor and synthetic phospholipids reconstituted in 30 mM calcium, with thrombin, and reducing the pro-thrombotic volume (i.e., thrombin) from 5 to 3 µL and blood volume from 25 to 12 µL. Another modification to simplify clot formation consisted of adding the thrombin (3 µL; 500 nM in saline) to one side of the well and 12 µL of blood to the opposite side of well, before using a heat stretched Pasteur pipette with sealed end to mix the two liquids together using 4 to 5 circular motions around the edge of the well (halo clot). The original methodology involved adding the 5 μL of the clotting mixture to the edge of the well, and then using a micropipette to slowly release the 25 μL of blood to the edge of the well while at the same time maintaining a circular motion. Plates were incubated in a humidified 37 °C incubator for 1 h before use in the thrombolysis assay.\n(§2) The thrombolysis assay involved adding 30 µL of Tris buffer (50 mM Tris–HCl, 100 mM NaCl, pH 7.4) with or without peptide followed by 55 µL Tris buffer containing tPA or TNK (5 nM final concentration) and 50% human plasma (final plasma concentration during thrombolysis 27.5%). The final concentration of peptide during thrombolysis ranged from 0.25 to 16 µM (note: an intravenous dose of R18D at 350 nmol/kg, which is likely to be neuroprotective achieves a Cmax of 0.7–0.9 µM in healthy male and female rats; unpublished observation). […] Following the addition of tPA or TNK into the wells, clot lysis was monitored over a 1-h period at 37 °C using a plate reader (Cytation5, BioTek, USA) by measuring absorbance at 510 nm every 1 min immediately after orbital shaking (205 rpm for 5 s). Controls consisted of wells with no thrombin (100% clot lysis; L100%) and wells with no tPA or TNK (0% clot lysis; L0%). At the 1-h time point, the percentage of thrombolysis (%T) in tPA or TNK treated samples (LTX) was calculated by transforming absorbance values based on the formula: % T = (LTX) − (L0%)/(L100%) − (L0%) × 100. In addition, during the 1-h period of clot lysis lag time and maximal activity (also known as maximum velocity or Vmax) of the thrombolysis reaction were calculated. The lag time is defined as the time interval between the first absorbance reading (time = 0) and the line of maximum slope of the thrombolysis reaction. The maximal activity is calculated from the maximum slope over the time course of the assay and reflects the capacity of an enzyme to catalyse a reaction (i.e., thrombolysis), with higher values representing higher catalytic activity (i.e., tPA/TNK induced plasmin thrombolysis).\n(§3) For each thrombolysis assay, replicates for control wells (L0% and L100%) and tPA or TNK only treated wells consisted of n = 4–8. Replicates for tPA or TNK and peptide treated wells consisted of n = 4. For data analysis and graphical representations of the results, data from three independent thrombolytic assays were pooled. Studies consisted of R18D, R18 and NA-1 examined at the 0.5, 1, 2, 4, 8 or 16 µM concentrations performed concurrently on the same 96-well plate, in respective order. In addition, since R18D is known to be resistant to plasmin degradation and appeared to have the most impact on tPA or TNK thrombolysis, a separate set of three independent assays were performed for this peptide alone at concentrations of 0.25, 0.5, 1, 2, 4, 8 or 16 µM. Furthermore, the second dose study with R18D provided the opportunity to include a lower concentration (0.25 µM) of the peptide and to provide comparative data when only one peptide was examined in the thrombolysis assay per 96-well plate as opposed to examining the three peptides concurrently on the same plate. […]"}, "[2]": {"biological_target": "T1, TNK", "test": "Neuroprotective proteolytic stability after pre-incubation with TNK (glutamic acid excitotoxicity model, MTS)", "assay_type": "in vitro ADME", "settings": "1 or 2 h or overnight (22-24 h)", "method": "Neuronal cultures were maintained in CO2 incubator.\ntPA (1000 µg/mL) or TNK (5000 µg/mL) resuspended in water (Baxter) were used to prepare 10 µg/mL (170 nM; note this is 34 times the concentration used in thrombolysis assay) stocks in MEM/2% B27 supplement (MEM/B27).\nAll data are presented as mean ± standard deviation (SD)."}, "[3]": {"system": "tPA or TNK", "assay_type": "biochemical, human", "settings": "range over peptide concentrations 0.25-16 µM and both thrombolytics; 1-h assay", "method": "as §1, §2\nFor each thrombolysis assay, replicates for control wells (L0% and L100%) and tPA or TNK only treated wells consisted of n = 4–8. Replicates for tPA or TNK and peptide treated wells consisted of n = 4. For data analysis and graphical representations of the results, data from three independent thrombolytic assays were pooled. Studies consisted of R18D, R18 and NA-1 examined at the 0.5, 1, 2, 4, 8 or 16 µM concentrations performed concurrently on the same 96-well plate, in respective order. […]"}, "[4]": {"biological_target": "T2, tPA (Homo sapiens, UniProt P00750)", "T2 construct": "purchased Boehringer Ingelheim, Germany 10 mg vial", "T2 sequence (P00750 36-562)": "as the sequence (P00750 36-562 T138N/N152Q/K331A/H332A/R333A/R334A) above, with N103T, Q117N, A296K, A297H, A298R, A299R counted along it", "test": "Halo clot thrombolysis assay, tPA thrombolysis of whole blood clots", "assay_type": "biochemical", "settings": "tPA 5 nM, 27.5% human plasma", "method": "as §1, §2, §3"}, "[5]": {"settings": "intravenous dose 350 nmol/kg, healthy male and female rats; ref unpublished observation; cited from earlier work"}, "[6]": {"settings": "concurrent study, 0.5-16 µM peptide"}, "[7]": {"settings": "peptide 16 µM, concurrent study, 37 °C"}, "[8]": {"settings": "separate dose study, R18D alone, 0.25-16 µM"}}, "note": "Non-standard residues stand in square brackets, D forms with d. Residues, ends and D or L forms follow the SMILES beside them.", "data": [{"smiles": "N=C(N)NCCC[C@@H](N)C(=O)N[C@H](CCCNC(=N)N)C(=O)N[C@H](CCCNC(=N)N)C(=O)N[C@H](CCCNC(=N)N)C(=O)N[C@H](CCCNC(=N)N)C(=O)N[C@H](CCCNC(=N)N)C(=O)N[C@H](CCCNC(=N)N)C(=O)N[C@H](CCCNC(=N)N)C(=O)N[C@H](CCCNC(=N)N)C(=O)N[C@H](CCCNC(=N)N)C(=O)N[C@H](CCCNC(=N)N)C(=O)N[C@H](CCCNC(=N)N)C(=O)N[C@H](CCCNC(=N)N)C(=O)N[C@H](CCCNC(=N)N)C(=O)N[C@H](CCCNC(=N)N)C(=O)N[C@H](CCCNC(=N)N)C(=O)N[C@H](CCCNC(=N)N)C(=O)N[C@H](CCCNC(=N)N)C(=O)O", "note": "[R18D] (H-[dR][dR][dR][dR][dR][dR][dR][dR][dR][dR][dR][dR][dR][dR][dR][dR][dR][dR]-OH)", "values": [{"measurement": "Effect on TNK thrombolysis maximal activity vs TNK control", "setting": "[1]; [6]", "value": "did not significantly impact TNK thrombolysis maximal activity"}, {"measurement": "Increase in TNK lag time", "setting": "[1]; peptide 4 µM, concurrent study, 37 °C", "value": 6.64, "unit": "min"}, {"measurement": "Decrease in TNK thrombolysis", "setting": "[1]; peptide 4 µM, concurrent study, 37 °C, 1 h, p = 0.022", "value": 9.35, "unit": "%"}, {"measurement": "Increase in TNK lag time", "setting": "[1]; peptide 8 µM, concurrent study, 37 °C", "value": 9.9, "unit": "min"}, {"measurement": "Decrease in TNK thrombolysis", "setting": "[1]; peptide 8 µM, concurrent study, 37 °C, 1 h, p = 0.044", "value": 8.71, "unit": "%"}, {"measurement": "Increase in TNK lag time", "setting": "[1]; [7]", "value": 8.76, "unit": "min"}, {"measurement": "Effect on TNK lag time vs TNK control", "setting": "[1]; [8]", "value": "did not impact TNK lag time at any concentration"}, {"measurement": "Effect on TNK thrombolysis maximal activity vs TNK control", "setting": "[1]; [8]", "value": "did not significantly impact TNK thrombolysis maximal activity at any concentration"}, {"measurement": "Effect on percentage TNK thrombolysis at 1 h vs TNK control", "setting": "[1]; separate dose study, R18D alone, 0.25-16 µM, 37 °C, 1 h", "value": "did not inhibit TNK thrombolysis"}, {"measurement": "Resistance to degradation by TNK", "setting": "[2]; inferred from retained neuroprotection, peptide 2 µM, TNK 170 nM", "value": "resistant to degradation"}, {"measurement": "Neuroprotective efficacy after incubation with TNK", "setting": "[2]; peptide 2 µM in MEM/B27 with TNK 10 µg/mL (170 nM), 37 °C CO2 incubator, then rat cortical neurons, glutamic acid 100 µM 5 min, MTS viability at 20-24 h, N = 4-8", "value": "a similar and a high level of neuroprotective efficacy"}, {"measurement": "Increase in lag time (time to the commencement of thrombolysis)", "setting": "[3]", "value": "0 to 9.9", "unit": "min"}, {"measurement": "Effect on tPA thrombolysis maximal activity vs tPA control", "setting": "[4]; [6]", "value": "did not significantly impact tPA thrombolysis maximal activity"}, {"measurement": "Increase in tPA lag time", "setting": "[4]; [7]", "value": 5.85, "unit": "min"}, {"measurement": "Effect on tPA lag time vs tPA control", "setting": "[4]; [8]", "value": "did not significantly affect tPA lag time at any concentration"}, {"measurement": "Effect on tPA thrombolysis maximal activity vs tPA control", "setting": "[4]; [8]", "value": "did not significantly impact tPA thrombolysis maximal activity at any concentration"}, {"measurement": "Effect on percentage tPA thrombolysis at 1 h vs tPA control", "setting": "[4]; separate dose study, R18D alone, 0.25-16 µM, 37 °C, three independent assays", "value": "did not inhibit tPA thrombolysis"}, {"measurement": "Effect on percentage tPA thrombolysis at 1 h vs tPA control", "setting": "[4]; three peptides concurrently on the same plate, 0.5-16 µM peptide, Tris pH 7.4, 37 °C, absorbance 510 nm, three independent assays pooled, n = 4, Dunnett's test", "value": "did not significantly inhibit thrombolysis"}, {"measurement": "Cmax", "setting": "[5]", "value": "700 to 900", "unit": "nM"}]}]}
